The compounds below were run on colon carcinoma cell HCT116 (assay: Tumor cell proliferation inhibitory activity test in vitro (MTT)). Conditions: 72 hours, read-out: IC50 of compounds for tumor cells, Activity, HCT116.
Format: cell-based, human
From the text: (§1) Human non-small cell lung cancer cell line NCI-H460, human small cell lung cancer cell line NCI-H446, human hepatocellular carcinoma cell strain HepG2, human colon carcinoma cell strain HCT116, human prostate cancer PC-3, human melanoma A375, colon carcinoma cell HCT-8, breast cancer cell MCF-7, ovarian cancer cell A2780s, drug-resistant ovarian cancer cell A2780/T, drug-resistant colon cancer cell HCT-8/T and doxorubicin-resistant breast cancer cell MCF-7/ADR are obtained from American Type Culture Collection (ATCC) and are cultured and preserved by the cell bank of State Key Laboratory of Biotherapy of Sichuan University. Above tumor cells are routinely cultured in DMEM culture medium containing 10% fetal bovine serum, 100 U·mL-1 penicillin and 100 mg·L−1 streptomycin, and in an incubator at 37° C. and with saturated humidity and 5% CO2 concentration.
(§2) Fill diluted cell suspension in the 96-well plate with 1000-10000 cells per well and incubate it in CO2 incubator overnight.
(§3) Replace with new medium containing various concentrations of compounds to be tested for the test group and replace with fresh medium with equal volume for the control group, each group is arranged with 5 parallel wells and incubated in an incubator at 37° C. and with 5% CO2 concentration.
(§4) Discard the supernatant after 72 hours, add 200 μL freshly prepared serum-free medium containing 0.2 mg/mL MTT into each well, continue to incubate at 37° C. for 1-4 hours, then stop incubation, carefully remove the culture supernatant in the wells and add 200 uL DMSO (dimethyl sulfoxide), oscillate with a miniature ultrasonic oscillator for 15-20 minutes to make the crystal fully dissolved and mixed. Determine OD values using a microplate reader at 570 nm with a reference wavelength of 450 nm.
(§5) Draw curves based on the growth inhibition rate for tumor cells of the same sample with different concentrations to get dose-response curve, so as to calculate IC50. Repeat each test for 3 times, measure IC50 (μM) or nanomolor concentration (nM) of compounds in different tumor cells.

| Compound | IC50 |
| --- | --- |
| COc1ccc(N(C)c2cc(=O)oc3ccccc23)cc1OC(=O)CCCl [COUM-60, 4-(N-methyl-N-(4-methoxy-3-(2-chloroethylcarbonyloxy)-benzene)-amino) Coumarin] | 100 to 5000 nM |
| 4-(N-methyl-N-(4-methoxy-3-((4-ethylbenzene) methoxycarbonyl)-benzene)-amino) Coumarin [COUM-53] | 100 to 5000 nM |
| 4-(N-methyl-N-(4-methoxy-3-(3-chlorophenyl-methoxycarbonyl)-benzene)-amino) Coumarin [COUM-62] | 100 to 5000 nM |
| 4-(N-methyl-N-(4-methoxy-3-(2-methylphenyl-methoxycarbonyl)-benzene)-amino) Coumarin [COUM-63] | 100 to 5000 nM |
| 4-(N-methyl-N-(4-methoxy-3-(2-pyrrole ethoxy)-benzene)-amino) Coumarin [COUM-52] | 100 to 5000 nM |
| COc1ccc(N(C)c2cc(=O)oc3ccccc23)cc1OCCN1CCSCC1 [COUM-50, 4-(N-methyl-N-(4-methoxy-3-(2-thiomorpholinoethoxy)-benzene)-amino) Coumarin] | 10 to 100 nM |

These compounds were tested on non-small cell lung cancer cell line NCI-H460 in the same assay as above. Conditions: 72 hours, read-out: IC50 of compounds for tumor cells, Activity, H460.
Format: cell-based, human
From the text: as §1, §2, §3, §4, §5

| Compound | IC50 |
| --- | --- |
| COc1ccc(N(C)c2cc(=O)oc3ccccc23)cc1OC(=O)CCCl [COUM-60, 4-(N-methyl-N-(4-methoxy-3-(2-chloroethylcarbonyloxy)-benzene)-amino) Coumarin] | 100 to 5000 nM |
| 4-(N-methyl-N-(4-methoxy-3-((4-ethylbenzene) methoxycarbonyl)-benzene)-amino) Coumarin [COUM-53] | 100 to 5000 nM |
| 4-(N-methyl-N-(4-methoxy-3-(3-chlorophenyl-methoxycarbonyl)-benzene)-amino) Coumarin [COUM-62] | 100 to 5000 nM |
| 4-(N-methyl-N-(4-methoxy-3-(2-methylphenyl-methoxycarbonyl)-benzene)-amino) Coumarin [COUM-63] | 100 to 5000 nM |
| 4-(N-methyl-N-(4-methoxy-3-(2-pyrrole ethoxy)-benzene)-amino) Coumarin [COUM-52] | 100 to 5000 nM |
| COc1ccc(N(C)c2cc(=O)oc3ccccc23)cc1OCCN1CCSCC1 [COUM-50, 4-(N-methyl-N-(4-methoxy-3-(2-thiomorpholinoethoxy)-benzene)-amino) Coumarin] | 10 to 100 nM |

Each compound was assayed on prostate cancer PC-3 in the same assay as above. Conditions: 72 hours, read-out: IC50 of compounds for tumor cells, Activity, PC-3.
Format: cell-based, human
From the text: as §1, §2, §3, §4, §5

| Compound | IC50 |
| --- | --- |
| COc1ccc(N(C)c2cc(=O)oc3ccccc23)cc1OC(=O)CCCl [COUM-60, 4-(N-methyl-N-(4-methoxy-3-(2-chloroethylcarbonyloxy)-benzene)-amino) Coumarin] | 100 to 5000 nM |
| 4-(N-methyl-N-(4-methoxy-3-((4-ethylbenzene) methoxycarbonyl)-benzene)-amino) Coumarin [COUM-53] | 100 to 5000 nM |
| 4-(N-methyl-N-(4-methoxy-3-(3-chlorophenyl-methoxycarbonyl)-benzene)-amino) Coumarin [COUM-62] | 100 to 5000 nM |
| 4-(N-methyl-N-(4-methoxy-3-(2-methylphenyl-methoxycarbonyl)-benzene)-amino) Coumarin [COUM-63] | 100 to 5000 nM |
| 4-(N-methyl-N-(4-methoxy-3-(2-pyrrole ethoxy)-benzene)-amino) Coumarin [COUM-52] | 100 to 5000 nM |
| COc1ccc(N(C)c2cc(=O)oc3ccccc23)cc1OCCN1CCSCC1 [COUM-50, 4-(N-methyl-N-(4-methoxy-3-(2-thiomorpholinoethoxy)-benzene)-amino) Coumarin] | 10 to 100 nM |

The compounds below were run on melanoma A375 in the same assay as above. Conditions: 72 hours, read-out: IC50 of compounds for tumor cells, Activity, A375.
Format: cell-based, human
From the text: as §1, §2, §3, §4, §5

| Compound | IC50 |
| --- | --- |
| COc1ccc(N(C)c2cc(=O)oc3ccccc23)cc1OC(=O)CCCl [COUM-60, 4-(N-methyl-N-(4-methoxy-3-(2-chloroethylcarbonyloxy)-benzene)-amino) Coumarin] | 100 to 5000 nM |
| 4-(N-methyl-N-(4-methoxy-3-((4-ethylbenzene) methoxycarbonyl)-benzene)-amino) Coumarin [COUM-53] | 100 to 5000 nM |
| 4-(N-methyl-N-(4-methoxy-3-(3-chlorophenyl-methoxycarbonyl)-benzene)-amino) Coumarin [COUM-62] | 100 to 5000 nM |
| 4-(N-methyl-N-(4-methoxy-3-(2-methylphenyl-methoxycarbonyl)-benzene)-amino) Coumarin [COUM-63] | 100 to 5000 nM |
| 4-(N-methyl-N-(4-methoxy-3-(2-pyrrole ethoxy)-benzene)-amino) Coumarin [COUM-52] | 100 to 5000 nM |
| COc1ccc(N(C)c2cc(=O)oc3ccccc23)cc1OCCN1CCSCC1 [COUM-50, 4-(N-methyl-N-(4-methoxy-3-(2-thiomorpholinoethoxy)-benzene)-amino) Coumarin] | 10 to 100 nM |

The compounds below were run on hepatocellular carcinoma cell HEPG2 in the same assay as above. Conditions: 72 hours, read-out: IC50 of compounds for tumor cells, Activity, HEPG2.
Format: cell-based, human
From the text: as §1, §2, §3, §4, §5

| Compound | IC50 |
| --- | --- |
| COc1ccc(N(C)c2cc(=O)oc3ccccc23)cc1OC(=O)CCCl [COUM-60, 4-(N-methyl-N-(4-methoxy-3-(2-chloroethylcarbonyloxy)-benzene)-amino) Coumarin] | 100 to 5000 nM |
| 4-(N-methyl-N-(4-methoxy-3-((4-ethylbenzene) methoxycarbonyl)-benzene)-amino) Coumarin [COUM-53] | 100 to 5000 nM |
| 4-(N-methyl-N-(4-methoxy-3-(3-chlorophenyl-methoxycarbonyl)-benzene)-amino) Coumarin [COUM-62] | 100 to 5000 nM |
| 4-(N-methyl-N-(4-methoxy-3-(2-methylphenyl-methoxycarbonyl)-benzene)-amino) Coumarin [COUM-63] | 100 to 5000 nM |
| 4-(N-methyl-N-(4-methoxy-3-(2-pyrrole ethoxy)-benzene)-amino) Coumarin [COUM-52] | 100 to 5000 nM |
| COc1ccc(N(C)c2cc(=O)oc3ccccc23)cc1OCCN1CCSCC1 [COUM-50, 4-(N-methyl-N-(4-methoxy-3-(2-thiomorpholinoethoxy)-benzene)-amino) Coumarin] | 10 to 100 nM |

The compounds below were run on breast cancer cell MCF-7 in the same assay as above. Conditions: 72 hours, read-out: IC50 of compounds for tumor cells, Activity, MCF-7.
Format: cell-based
From the text: as §1, §2, §3, §4, §5

| Compound | IC50 |
| --- | --- |
| COc1ccc(N(C)c2cc(=O)oc3ccccc23)cc1OC(=O)CCCl [COUM-60, 4-(N-methyl-N-(4-methoxy-3-(2-chloroethylcarbonyloxy)-benzene)-amino) Coumarin] | 100 to 5000 nM |
| 4-(N-methyl-N-(4-methoxy-3-((4-ethylbenzene) methoxycarbonyl)-benzene)-amino) Coumarin [COUM-53] | 100 to 5000 nM |
| 4-(N-methyl-N-(4-methoxy-3-(3-chlorophenyl-methoxycarbonyl)-benzene)-amino) Coumarin [COUM-62] | 100 to 5000 nM |
| 4-(N-methyl-N-(4-methoxy-3-(2-methylphenyl-methoxycarbonyl)-benzene)-amino) Coumarin [COUM-63] | 100 to 5000 nM |
| 4-(N-methyl-N-(4-methoxy-3-(2-pyrrole ethoxy)-benzene)-amino) Coumarin [COUM-52] | 100 to 5000 nM |
| COc1ccc(N(C)c2cc(=O)oc3ccccc23)cc1OCCN1CCSCC1 [COUM-50, 4-(N-methyl-N-(4-methoxy-3-(2-thiomorpholinoethoxy)-benzene)-amino) Coumarin] | 10 to 100 nM |

Source: patent publication US10544134B2, “4-substituted coumarin derivatives and preparation methods and uses thereof” (SI CHUAN UNIVERSITY, priority 2015, dated 2020)
